Legend:
Cannabinoid receptor 1 [1] = biological target: T1, Cannabinoid receptor 1 (Homo sapiens, UniProt P21554); test: Displacement of [3H]SR141716A from membrane bound human CB1 receptor after 1 hr by beta scintillation counting method
Homo sapiens [2] = species: Homo sapiens; test: Selectivity ratio of IC50 for displacement of [3H]SR141716A from membrane bound human CB1 receptor to IC50 for displacement of [3H]CP55940 from membrane bound human CB2 receptor
Cannabinoid receptor 1 [3] = biological target: T1, Cannabinoid receptor 1; test: Displacement of [3H]SR141716A from membrane bound human CB1 receptor at 10 uM after 1 hr by beta scintillation counting method relative to control
Cannabinoid receptor 1 [4] = biological target: T1, Cannabinoid receptor 1; test: Displacement of [3H]SR141716A from membrane bound human CB1 receptor at 100 uM after 1 hr by beta scintillation counting method relative to control
Cannabinoid receptor 2 [5] = biological target: T2, Cannabinoid receptor 2 (Homo sapiens, UniProt P34972); test: Displacement of [3H]CP55940 from membrane bound human CB2 receptor at 10 uM after 1 hr by beta scintillation counting method relative to control
Homo sapiens [6] = species: Homo sapiens; test: Selectivity ratio of compound effect for displacement of [3H]CP55940 from membrane bound human CB2 receptor at 10 uM to compound effect for displacement of [3H]SR141716A from membrane bound human CB1 receptor at 10 uM
Cannabinoid receptor 2 [7] = biological target: T2, Cannabinoid receptor 2; test: Displacement of [3H]CP55940 from membrane bound human CB2 receptor after 1 hr by beta scintillation counting method
Cannabinoid receptor 2 [8] = biological target: T2, Cannabinoid receptor 2; test: Displacement of [3H]CP55940 from membrane bound human CB2 receptor at 100 uM after 1 hr by beta scintillation counting method relative to control
Homo sapiens [9] = species: Homo sapiens; test: Selectivity ratio of compound effect for displacement of [3H]SR141716A from membrane bound human CB1 receptor at 100 uM to compound effect for displacement of [3H]CP55940 from membrane bound human CB2 receptor at 100 uM

T2 sequence (P34972 whole entry): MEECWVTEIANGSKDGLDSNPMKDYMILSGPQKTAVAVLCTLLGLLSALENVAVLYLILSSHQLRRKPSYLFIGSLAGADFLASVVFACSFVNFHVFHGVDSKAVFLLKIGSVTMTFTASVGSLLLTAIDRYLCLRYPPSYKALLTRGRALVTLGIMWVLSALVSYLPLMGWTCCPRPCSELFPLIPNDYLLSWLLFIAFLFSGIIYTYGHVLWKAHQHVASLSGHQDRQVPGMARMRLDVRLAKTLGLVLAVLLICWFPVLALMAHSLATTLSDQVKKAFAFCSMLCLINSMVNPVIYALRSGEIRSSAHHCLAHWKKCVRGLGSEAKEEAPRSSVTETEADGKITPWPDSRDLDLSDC
T1 sequence (P21554 whole entry): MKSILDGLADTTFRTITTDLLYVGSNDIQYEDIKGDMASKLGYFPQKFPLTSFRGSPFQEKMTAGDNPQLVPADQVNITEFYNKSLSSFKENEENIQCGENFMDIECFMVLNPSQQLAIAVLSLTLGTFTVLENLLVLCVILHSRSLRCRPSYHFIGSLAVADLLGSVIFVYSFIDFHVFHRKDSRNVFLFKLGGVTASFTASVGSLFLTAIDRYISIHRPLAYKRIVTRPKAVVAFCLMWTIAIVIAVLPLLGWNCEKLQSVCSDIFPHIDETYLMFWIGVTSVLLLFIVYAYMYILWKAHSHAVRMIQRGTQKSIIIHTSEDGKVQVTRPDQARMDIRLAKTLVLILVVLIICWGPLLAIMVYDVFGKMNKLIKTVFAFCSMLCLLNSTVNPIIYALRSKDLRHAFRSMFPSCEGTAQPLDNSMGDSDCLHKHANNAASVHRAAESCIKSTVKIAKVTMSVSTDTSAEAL

Work on `COC(=O)CCCCOc1ccc(C(=O)c2cccc3ccccc23)c2ccccc12` yielded an IC50 (Cannabinoid receptor 1 [1]) of over 100 µM, a Ratio IC50 (Homo sapiens [2]) of over 2.1 and an inhibition (Cannabinoid receptor 1 [3]) of 4.44%. The inhibition (Cannabinoid receptor 1 [4]) was 36.5%, the inhibition (Cannabinoid receptor 2 [5]) was 11.9% and the Selectivity ratio (Homo sapiens [6]) was 2.69. It also gave an IC50 (Cannabinoid receptor 2 [7]) of 47.7 µM and an inhibition (Cannabinoid receptor 2 [8]) of 85.6%.
`COC(=O)CCCOc1ccc(C(=O)c2cccc3ccccc23)c2ccccc12` showed an IC50 (Cannabinoid receptor 1 [1]) of 14.1 µM, a Ratio IC50 (Homo sapiens [2]) of 8.36 and an inhibition (Cannabinoid receptor 1 [3]) of 43.1%. The inhibition (Cannabinoid receptor 1 [4]) was 68.8%, the inhibition (Cannabinoid receptor 2 [5]) was 96.9% and the Selectivity ratio (Homo sapiens [6]) was 2.25. The IC50 (Cannabinoid receptor 2 [7]) was 1.69 µM and the inhibition (Cannabinoid receptor 2 [8]) was 101%.
For `O=C(O)CCCOc1ccc(C(=O)c2cccc3ccccc23)c2ccccc12`, the IC50 (Cannabinoid receptor 1 [1]) was over 100 µM, the inhibition (Cannabinoid receptor 1 [4]) was 16% and the IC50 (Cannabinoid receptor 2 [7]) was over 100 µM. It also gave a Selectivity ratio (Homo sapiens [9]) of 2.99 and an inhibition (Cannabinoid receptor 2 [8]) of 5.36%.
Work on `O=C(O)CCCCOc1ccc(C(=O)c2cccc3ccccc23)c2ccccc12` yielded an IC50 (Cannabinoid receptor 1 [1]) of over 100 µM, a Ratio IC50 (Homo sapiens [2]) of over 7.92 and an inhibition (Cannabinoid receptor 1 [3]) of 13%. The inhibition (Cannabinoid receptor 1 [4]) was 20.5%, the inhibition (Cannabinoid receptor 2 [5]) was 36.6% and the Selectivity ratio (Homo sapiens [6]) was 2.81. The IC50 (Cannabinoid receptor 2 [7]) was 12.6 µM and the inhibition (Cannabinoid receptor 2 [8]) was 52.1%.
Work on `CCCCCOc1ccc(C(=O)c2cccc3ccccc23)c2ccccc12` yielded an inhibition (Cannabinoid receptor 1 [3]) of 64.2%, an inhibition (Cannabinoid receptor 2 [5]) of 64.2% and an IC50 (Cannabinoid receptor 2 [7]) of 5.3 µM.
For `O=C(c1cccc2ccccc12)c1ccc(OCCCO)c2ccccc12`, the IC50 (Cannabinoid receptor 1 [1]) was 100 µM, the Ratio IC50 (Homo sapiens [2]) was 6.81 and the inhibition (Cannabinoid receptor 1 [3]) was 21.3%. The inhibition (Cannabinoid receptor 1 [4]) was 55.6%, the inhibition (Cannabinoid receptor 2 [5]) was 37.4% and the Selectivity ratio (Homo sapiens [6]) was 1.76. It also gave an IC50 (Cannabinoid receptor 2 [7]) of 14.7 µM and an inhibition (Cannabinoid receptor 2 [8]) of 78.5%.
Work on `O=C(c1cccc2ccccc12)c1ccc(OCCCCO)c2ccccc12` yielded an IC50 (Cannabinoid receptor 1 [1]) of 17.9 µM, a Ratio IC50 (Homo sapiens [2]) of 3.55 and an inhibition (Cannabinoid receptor 1 [3]) of 31.2%. For the same molecule, the inhibition (Cannabinoid receptor 1 [4]) was 72%, the inhibition (Cannabinoid receptor 2 [5]) was 91.7% and the Selectivity ratio (Homo sapiens [6]) was 2.93. It also gave an IC50 (Cannabinoid receptor 2 [7]) of 5.05 µM and an inhibition (Cannabinoid receptor 2 [8]) of 89.9%.
Work on `O=C(c1cccc2ccccc12)c1ccc(OCCCCCO)c2ccccc12` yielded an IC50 (Cannabinoid receptor 1 [1]) of over 10 µM, a Ratio IC50 (Homo sapiens [2]) of over 9.26 and an inhibition (Cannabinoid receptor 1 [3]) of 35.8%. It also gave an inhibition (Cannabinoid receptor 2 [5]) of 75.3%, a Selectivity ratio (Homo sapiens [6]) of 2.1 and an IC50 (Cannabinoid receptor 2 [7]) of 1.08 µM.
`O=C(c1cccc2ccccc12)c1ccc(OCCCCCCO)c2ccccc12` gave an IC50 (Cannabinoid receptor 1 [1]) of over 10 µM, an inhibition (Cannabinoid receptor 1 [3]) of 42.6% and an inhibition (Cannabinoid receptor 2 [5]) of 46.9%. For the same molecule, the Selectivity ratio (Homo sapiens [6]) was 1.1 and the IC50 (Cannabinoid receptor 2 [7]) was over 10 µM.

From ChEMBL document CHEMBL4152361, “Synthesis of oxidative metabolites of CRA13 and their analogs: Identification of CRA13 active metabolites and analogs thereof with selective CB2R affinity” (Bioorg Med Chem, 2018)
